# Laboratory results taken from ChEMBL document CHEMBL1128007, “Synthesis of a galactose-fucose disaccharide mimic of sialyl Lewis X” (Bioorg Med Chem Lett, 1994).
# Active and inactive are the calls of the source. The rule behind the calls is not given here.
# Target: T1, E-selectin (Homo sapiens) (UniProt P16581)
# T1 sequence (whole entry): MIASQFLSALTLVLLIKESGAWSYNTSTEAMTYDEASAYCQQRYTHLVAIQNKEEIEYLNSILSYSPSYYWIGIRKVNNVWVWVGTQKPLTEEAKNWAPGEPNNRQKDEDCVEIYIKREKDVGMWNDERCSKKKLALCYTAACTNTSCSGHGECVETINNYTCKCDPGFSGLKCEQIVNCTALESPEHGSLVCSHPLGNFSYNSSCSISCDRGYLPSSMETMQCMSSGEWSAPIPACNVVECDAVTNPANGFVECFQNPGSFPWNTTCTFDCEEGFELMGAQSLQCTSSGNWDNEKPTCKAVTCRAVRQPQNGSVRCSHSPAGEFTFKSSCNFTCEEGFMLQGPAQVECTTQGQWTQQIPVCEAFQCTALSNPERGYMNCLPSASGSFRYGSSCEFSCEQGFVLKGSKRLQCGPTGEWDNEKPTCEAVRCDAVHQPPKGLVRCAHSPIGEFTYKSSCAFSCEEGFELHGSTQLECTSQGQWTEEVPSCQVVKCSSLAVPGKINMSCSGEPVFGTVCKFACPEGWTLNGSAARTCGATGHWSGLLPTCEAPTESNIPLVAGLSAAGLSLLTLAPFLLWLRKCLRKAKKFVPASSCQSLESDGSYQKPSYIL
# Assay: Compound was tested at 0.05-100 mM concentration to inhibit ca++ mediated binding of HL-60 cells to Selectin E adsorbed onto a multi-well plate; Active
# Type: cell-based
row,Compound,Activity
1,COC1OC(C)C(O)(CC(=O)CCCOC2(C(=O)O)CC(O)C(NC(C)=O)C([C@@H](O)[C@H](O)CO)O2)C(O)C1O (stereo partly drawn),Active
2,CC1OC(OCCOC2CC(CO)C(O)C(OCC(=O)O)C2O)C(O)C(O)C1O (stereo not drawn),Active
3,CC(=O)N[C@H]1[C@H]([C@H](O)[C@H](O)CO)O[C@@](O[C@H]2[C@@H](O)[C@@H](CO)O[C@@H](O[C@@H]([C@H](O[C@@H]3O[C@@H](C)[C@@H](O)[C@@H](O)[C@@H]3O)[C@H](C=O)NC(C)=O)[C@H](O)CO)[C@@H]2O)(C(=O)O)C[C@@H]1O,Active
